Legend:
Type in all cases: cell-based, human
[1] = tested on: 143B cells; experiment: Isotopomer Spectral Analysis (ISA) of lipogenesis in 143B cells
Protocol: (§1) Cell Culture, Isotopic Labeling, and Hypoxia. All cell lines were cultured in Dulbecco's Modified Eagle Medium (DMEM; Mediatech) containing 10% fetal bovine serum (FBS; Invitrogen) and 100 U/ml penicillin/streptomycin (P/S; Mediatech) unless otherwise mentioned. Cell lines were obtained from ATCC unless otherwise noted. The VC3 glioma cell line was provided by Tim Lautenschlaeger (Ohio State University), MDA-MB-231 and HCT116 cell lines were provided by Ferdinando Chiaradonna (University of Milano-Bicocca), MRC5 cells were provided by Stephen Lippard (MIT), SN12C, ACHN, and 786-O cells were provided by Kevin Courtney and Lew Cantley (Harvard Medical School), and MCF10A cells were provided by Joan Brugge (Harvard Medical School), and Huh7 cells were provided by Mike Hemann (MIT). MCF10A cells were cultured in custom DMEM/F12 (Hyclone) containing 5% horse serum, 20 ng/ml EGF, 10 μg/ml insulin, 100 ng/ml cholera toxin, 0.5 mg/ml hydrocortisone, 100 U/ml penicillin/streptomycin, and labeled/unlabeled glucose and glutamine at 18 mM and 2.5 mM, respectively. […] The internal gas content was monitored using Fyrite gas analyzers (Bacharach) for CO2 and O2. […]
(§2) Metabolite Extraction and Gas Chromatography/Mass Spectrometry (GC/MS) Analysis. […] In some ISA experiments, cells were trypsinized, counted, and pelleted prior to lipid extraction as described above. […]

[2] = tested on: A549 cells; experiment: Isotopomer Spectral Analysis (ISA) of lipogenesis in A549 cells
Protocol: as §1, §2

[3] = tested on: UMRC2 cells; experiment: ISA of lipogenesis and glucose oxidation in UMRC2 cells expressing ARNT-targeting shRNAs; conditions: UMRC2 cells (VHL-deficient)
Protocol: as §1, §2

[4] = tested on: 143B osteosarcoma; experiment: Reductive carboxylation by [1-13C]glutamine labeling and GC/MS in 143B cells expressing shRNAs
Protocol: as §1, §2

[5] = tested on: Hypoxia response element- (HRE-) driven reporter; experiment: Hypoxia response element (HRE)-driven reporter in HCT116 cells expressing IDH1-targeting shRNAs; conditions: normal culture, hypoxia, or 1 mM DMOG, 18 hours
Protocol: Luciferase Assays. Subconfluent cells in 6 well plates were co-transfected with 1 μg of a firefly luciferase vector and 50 ng Renilla luciferase vector (pRL-TK; Promega) using Fugene 6 reagent. The ODD-Luciferase and Luciferase vectors were obtained from Addgene and based off of the pcDNA3.1 vector (49). Hypoxia responsive element-luciferase (HRE-Luc) vectors were used as described (50). Approximately 24 hours after transfection, medium was changed and cells were placed under normoxia, hypoxia, or treated with 1 mM dimethyloxalylglycine (DMOG). After 18 hours of treatment, cells were lysed and luciferase activity was determined using the Dual Luciferase Reporter Assay system (Promega) according to the manufacturer's instructions.

[6] = tested on: MDA-MB-231 breast carcinoma; experiment: Reductive carboxylation by [1-13C]glutamine labeling and GC/MS in MDA-MB-231 cells expressing shRNAs
Protocol: as §1, with “respectively. PRC3, WT8, pTV, and pTR cell lines were subcloned from the 786-O cell line as previously described (42, 43). For isotopic labeling experiments, cells were cultured in 6 well plates in glucose- and glutamine-free DMEM (Sigma) containing 10% dialyzed FBS (Invitrogen), 100 U/ml P/S, naturally labeled glucose or glutamine, and the appropriate tracer, including [U-^13C5]glutamine (Isotec), [5-^13C]glutamine (C/D/N Isotopes), [1-^13C]glutamine, [U-^13C6]glucose, [1,2-^13C2]glucose (all from Cambridge Isotope Labs). Steady state labeling of organic and amino acids was accomplished by culturing subconfluent cells in tracer medium for 24 hours.” for “respectively.”
as §2

[7] = tested on: HCT116 colon carcinoma; experiment: Reductive carboxylation by [1-13C]glutamine labeling and GC/MS in HCT116 cells expressing shRNAs
Protocol: as §1, with “respectively. PRC3, WT8, pTV, and pTR cell lines were subcloned from the 786-O cell line as previously described (42, 43). For isotopic labeling experiments, cells were cultured in 6 well plates in glucose- and glutamine-free DMEM (Sigma) containing 10% dialyzed FBS (Invitrogen), 100 U/ml P/S, naturally labeled glucose or glutamine, and the appropriate tracer, including [U-^13C5]glutamine (Isotec), [5-^13C]glutamine (C/D/N Isotopes), [1-^13C]glutamine, [U-^13C6]glucose, [1,2-^13C2]glucose (all from Cambridge Isotope Labs). Steady state labeling of organic and amino acids was accomplished by culturing subconfluent cells in tracer medium for 24 hours.” for “respectively.”
as §2

[8] = tested on: A549 cells; experiment: 13C Metabolic Flux Analysis (MFA) of A549 cells expressing IDH1-targeting shRNAs, [U-13C5]glutamine tracer
Protocol: (§3) Cell Culture, Isotopic Labeling, and Hypoxia. All cell lines were cultured in Dulbecco's Modified Eagle Medium (DMEM; Mediatech) containing 10% fetal bovine serum (FBS; Invitrogen) and 100 U/ml penicillin/streptomycin (P/S; Mediatech) unless otherwise mentioned. Cell lines were obtained from ATCC unless otherwise noted. The VC3 glioma cell line was provided by Tim Lautenschlaeger (Ohio State University), MDA-MB-231 and HCT116 cell lines were provided by Ferdinando Chiaradonna (University of Milano-Bicocca), MRC5 cells were provided by Stephen Lippard (MIT), SN12C, ACHN, and 786-O cells were provided by Kevin Courtney and Lew Cantley (Harvard Medical School), and MCF10A cells were provided by Joan Brugge (Harvard Medical School), and Huh7 cells were provided by Mike Hemann (MIT). MCF10A cells were cultured in custom DMEM/F12 (Hyclone) containing 5% horse serum, 20 ng/ml EGF, 10 μg/ml insulin, 100 ng/ml cholera toxin, 0.5 mg/ml hydrocortisone, 100 U/ml penicillin/streptomycin, and labeled/unlabeled glucose and glutamine at 18 mM and 2.5 mM, respectively. PRC3, WT8, pTV, and pTR cell lines were subcloned from the 786-O cell line as previously described (42, 43). For isotopic labeling experiments, cells were cultured in 6 well plates in glucose- and glutamine-free DMEM (Sigma) containing 10% dialyzed FBS (Invitrogen), 100 U/ml P/S, naturally labeled glucose or glutamine, and the appropriate tracer, including [U-^13C5]glutamine (Isotec), [5-^13C]glutamine (C/D/N Isotopes), [1-^13C]glutamine, [U-^13C6]glucose, [1,2-^13C2]glucose (all from Cambridge Isotope Labs). Steady state labeling of organic and amino acids was accomplished by culturing subconfluent cells in tracer medium for 24 hours. Labeling of fatty acids for Isotopomer Spectral Analysis (USA) was conducted over 3-5 days of culture in an excess of tracer medium (3-4 ml/well in a 6 well plate) to prevent nutrient depletion. Hypoxic culture was conducted by feeding a custom mixture of 1% O2, 5% CO2, and 94% N2 to a standard incubator controlled at 5% CO2. HEPES (Mediatech) was added to the culture medium at 20 mM to maintain pH between normoxic and hypoxic cultures. The internal gas content was monitored using Fyrite gas analyzers (Bacharach) for CO2 and O2. O2 levels were confirmed at 1.5-2% during hypoxic culture.
Stable cell cultures with decreased IDH1 and IDH2 expression were generated via lentiviral-mediated shRNA expression. pLKO.1 lentiviral vectors targeting IDH1 with shRNA sequences of […] TT (IDH1a; TRCN0000027298; SEQ ID NO:1) and […] TT (IDH1b; TRCN0000027289; SEQ ID NO:2), IDH2 with shRNA sequence […] TT (TRCN0000027225; SEQ ID NO:3). For controls, either non-targeting control shRNA (SHC002; Sigma) or pLKO.1 scrambled control vector (44)(Addgene) were used. pLKO.1 vector targeting ARNT with shRNA sequence […] TT (TRCN0000003819; SEQ ID NO:4) was obtained from Open Biosystems.
HEK293T cells were co-transfected with pLKO.1 vectors and packaging plasmids to produce lentivirus. Filtered supernatants were used for infection, and cells were selected with puromycin (2 μg/ml) for at least two passages before initiating tracer and flux experiments.
Metabolite Extraction and Gas Chromatography/Mass Spectrometry (GC/MS) Analysis. At the conclusion of culture, cells were rinsed with 1 ml ice cold PBS and quenched with 0.4 ml ice cold methanol. An equal volume of water was added, and cells were collected in tubes by scraping with a pipette. One volume of ice cold chloroform was added to each tube, and the extracts were vortexed at 4° C. for 30 minutes. Samples were centrifuged at 14,000 g for 5 minutes at room temperature. For analysis of polar metabolites, the aqueous phase was transferred to a new tube for evaporation under airflow. For ISA experiments, the non-polar fraction was collected and evaporated under airflow. In some ISA experiments, cells were trypsinized, counted, and pelleted prior to lipid extraction as described above. […]

[9] = tested on: A549 cells; experiment: Reductive glutamine metabolism by isotopic labeling and GC/MS in A549 cells expressing shRNAs; conditions: [U-13C5]glutamine, aspartate, malate, fumarate
Protocol: as §3, with “Labeling of fatty acids for Isotopomer Spectral Analysis (USA) was conducted over 3-5 days of culture in an excess of tracer medium (3-4 ml/well in a 6 well plate) to prevent nutrient depletion. Hypoxic culture was conducted by feeding a custom mixture of 1% O2, 5% CO2, and 94% N2 to a standard incubator controlled at 5% CO2. HEPES (Mediatech) was added to the culture medium at 20 mM to maintain pH between normoxic and hypoxic cultures.” left out, “O2 levels were confirmed at 1.5-2% during hypoxic culture.” left out
as §2

[10] = Anaplerotic reactions, exchange flux
[11] = Anaplerotic reactions, net flux
[12] = Pentose Phosphate Pathway, exchange flux
[13] = Pentose Phosphate Pathway, net flux

## CCGGGAGAAGTCAGATGGTTTATTTCTCGAGAAATAAACCATCTGACTTCTCTTT TT (CCGGGAGAAGTCAGATGGTTTATTTCTCGAGAAATAAACCATCTGACTTCTCTTTTT; expressed or natural sequence) [ARNT shRNA, pLKO.1 vector targeting ARNT with shRNA, obtained from Open Biosystems]
[1]
  utilization of [5-13C]glutamine for lipogenesis: reduced
[2]
  utilization of [5-13C]glutamine for lipogenesis: reduced
[3]
  glucose oxidation and reductive glutamine metabolism: modulates glucose oxidation and reductive glutamine metabolism

## CCGGGCTGCTTGCATTAAAGGTTTACTCGAGTAAACCTTTAATGCAAGCAGCTTT TT (CCGGGCTGCTTGCATTAAAGGTTTACTCGAGTAAACCTTTAATGCAAGCAGCTTTTT; expressed or natural sequence) [IDH1a, pLKO.1 lentiviral vector shRNA targeting IDH1]
[4]
  reductive carboxylation flux: reduces reductive carboxylation flux
[5]
  HRE-driven reporter levels (hypoxia signaling): does not increase hypoxia signaling and stabilization
[6]
  reductive carboxylation flux (M1 label from [1-13C]glutamine): reduces reductive carboxylation flux
[7]
  reductive carboxylation flux (M1 label from [1-13C]glutamine): reduces reductive carboxylation flux
[8]; Amino acids, exchange flux
  Flux Pyr.m <−> Ala: 0.00 fmol/cell*hr
[8]; Amino acids, net flux
  Flux Gln −> Glu: 22.97 fmol/cell*hr
  Flux Gln.x −> Gln: 23.47 fmol/cell*hr
  Flux Glu −> Glu.x: 18.56 fmol/cell*hr
  Flux Pyr.m −> Ala: 0.42 fmol/cell*hr
[8]; [10]
  Flux Glu <−> Akg: 499.30 fmol/cell*hr
  Flux Mal <−> Pyr.m + CO2: 0.00 fmol/cell*hr
  Flux Oac <−> Asp: 0.01 fmol/cell*hr
[8]; [11]
  Flux Glu −> Akg: 3.90 fmol/cell*hr
  Flux Mal −> Pyr.m + CO2: 5.44 fmol/cell*hr
  Flux Oac −> Asp: 0.61 fmol/cell*hr
  Flux Pyr.m + CO2 −> Oac: 2.14 fmol/cell*hr
[8]; Biomass, net flux
  Flux 0.6*Asp + 0.5*Glu + 0.42*Ala + 0.5*Gln −> Biomass: 1.01 fmol/cell*hr
  Flux AcCoA.c −> Fatty acids: 10.65 fmol/cell*hr
  Flux Cit −> AcCoA.c + Oac: 10.65 fmol/cell*hr
  Flux P5P −> NTP: 0.50 fmol/cell*hr
[8]; Dilution/Mixing
  Flux 0*Pyr.c −> Pyr.mnt: 1.00 fmol/cell*hr
  Flux 0*Pyr.m −> Pyr.mnt: 0.00 fmol/cell*hr
  Flux 0*Suc −> Suc.mnt: 0.24 fmol/cell*hr
  Flux Suc.d −> Suc.mnt: 0.76 fmol/cell*hr
[8]; Dilution/Mixing, exchange flux
  Flux Pyr.c <−> Pyr.m: 82.77 fmol/cell*hr
[8]; Dilution/Mixing, net flux
  Flux Pyr.c −> Pyr.m: 11.79 fmol/cell*hr
[8]; Glycolysis, exchange flux
  Flux DHAP <−> GAP: 566.90 fmol/cell*hr
  Flux G6P <−> F6P: 3.2E+04 fmol/cell*hr
  Flux GAP <−> 3PG: 1.7E+08 fmol/cell*hr
  Flux Pyr.c <−> Lac: 706.50 fmol/cell*hr
[8]; Glycolysis, net flux
  Flux 3PG −> Pyr.c: 186.40 fmol/cell*hr
  Flux DHAP −> GAP: 91.96 fmol/cell*hr
  Flux F6P −> DHAP + GAP: 91.96 fmol/cell*hr
  Flux G6P −> F6P: 86.95 fmol/cell*hr
  Flux GAP −> 3PG: 186.40 fmol/cell*hr
  Flux Glc.x −> G6P: 94.96 fmol/cell*hr
  Flux Lac −> Lac.x: 174.60 fmol/cell*hr
  Flux Pyr.c −> Lac: 174.60 fmol/cell*hr
[8]; [12]
  Flux P5P + E4P <−> F6P + GAP: 1.76 fmol/cell*hr
  Flux P5P + P5P <−> S7P + GAP: 3.0E+04 fmol/cell*hr
  Flux S7P + GAP <−> F6P + E4P: 1.9E+05 fmol/cell*hr
[8]; [13]
  Flux G6P −> P5P + CO2: 8.01 fmol/cell*hr
  Flux P5P + E4P −> F6P + GAP: 2.50 fmol/cell*hr
  Flux P5P + P5P −> S7P + GAP: 2.50 fmol/cell*hr
  Flux S7P + GAP −> F6P + E4P: 2.50 fmol/cell*hr
[8]; TCA Cycle, exchange flux
  Flux Fum <−> Mal: 1.1E+06 fmol/cell*hr
  Flux Mal <−> Oac: 98.66 fmol/cell*hr
  Flux Suc <−> Fum: 0.00 fmol/cell*hr
[8]; TCA Cycle, exchange flux (reductive IDH flux)
  Flux Cit <−> Akg + CO2: 1.88 fmol/cell*hr
[8]; TCA Cycle, net flux
  Flux AcCoA.m + Oac −> Cit: 14.66 fmol/cell*hr
  Flux Akg −> Suc + CO2: 7.91 fmol/cell*hr
  Flux Fum −> Mal: 7.91 fmol/cell*hr
  Flux Mal −> Oac: 2.48 fmol/cell*hr
  Flux Pyr.m −> AcCoA.m + CO2: 14.66 fmol/cell*hr
  Flux Suc −> Fum: 7.91 fmol/cell*hr
[8]; TCA Cycle, net flux (IDH)
  Flux Cit −> Akg + CO2: 4.01 fmol/cell*hr
[9]
  M3 mass isotopomers derived from [U-13C5]glutamine (reductive carboxylation): decrease in reductive carboxylation
